Results: patent US12227488B2, “Small molecule degraders of Helios and methods of use” (DANA-FARBER CANCER INSTITUTE, INC., priority 2018, dated 2025)
“Also recorded” adds a separate entry of the source.

Experiments:
CRBN and Helios (IKZF2) = target: T1, CRBN and Helios (IKZF2) (Homo sapiens, UniProt Q96SW2+Q9UKS7); assay: TR-FRET dimerization assay (CRBN-IKZF2 ternary complex formation); type: binding; settings: for TR-FRET signal (520/490 ratio), CRBN-Helios dimerization, in words: FIG. 1B, 2A, 5; for TR-FRET-IKZF2 (Normalized to CC-885): n=1
T1 construct: His (N); Strep (N)
How it was run: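 BODIPY-labeled DDB1ΔB-CRBN and in vitro biotinylated IKZF2 were treated with increasing compound concentrations plus tracer Terbium-Streptavidin and incubated 15 min at rt. Recruitment was quantified as the 520/490 nm TR-FRET ratio; values are single measurements (n=1), each averaged from at least three technical replicates.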

IKZF2 = assay: Cellular degradation assay, eGFP-IKZF2Δ fusion with mCherry reporter in Flp-In 293 cells; type: cell-based; settings: 5 h incubation, n=1
How it was run: (§1)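 Flp-In 293 cells stably expressing eGFP-tagged degron fusions with P2A-mCherry reporter were treated with compound titrations (0.5% DMSO) for 5 hours. Imaging quantified GFP-positive/mCherry-positive cell fraction per well; DC50 at 5 h from nonlinear variable-slope fit.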

IKZF1 = target: T2, IKZF1 (Homo sapiens, UniProt Q13422); assay: Cellular degradation assay, eGFP-IKZF1Δ fusion with mCherry reporter in Flp-In 293 cells; type: cell-based; settings: 5 h incubation, n=1
T2 construct: expressed in transfected cells; host or cells: Flp-In 293
How it was run: as §1

SALL4 ZNF1-2 = target: T3, SALL4 ZNF1-2 (Homo sapiens, UniProt Q96SW2+Q9UJQ4); assay: Cellular degradation assay, eGFP-SALL4 ZnF1-2 fusion with mCherry reporter in Flp-In 293 cells; type: cell-based; settings: 5 h incubation, n=1
T3 construct: IKZF1Δ, IKZF2Δ, GSPT1 and SALL4 ZnF1-2 were subcloned; expressed in transfected cells; host or cells: Flp-In 293
How it was run: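 Flp-In 293 cells stably expressing eGFP-SALL4 ZnF1-2 fusion plus mCherry reporter were treated with compound titrations (0.5% DMSO) for 5 hours. Imaging at 488/561 nm gave, per well, the fraction of GFP-positive among mCherry-positive cells.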

Helios [1] = target: T4, Helios (Homo sapiens, UniProt Q96SW2+Q9UKS7); assay: Immunoblot for Helios in Jurkat cells; type: cell-based
T4 construct: endogenous in cells; host or cells: Jurkat
Experimental: (§2) A focused library of imide analogs was synthesized and assessed for their ability to induce dimerization between CRBN and Helios in a time-resolved fluorescence energy transfer (TR-FRET) assay (FIG. 1A).
(§3) Cells were lysed in M-PER buffer (Thermo Scientific) containing protease/phosphatase inhibitor cocktail (Roche). Protein concentration was measured using a BCA assay (Pierce™) Equivalent amounts of each sample were loaded on 4-12% Bis-Tris gels (Invitrogen™) transferred to nitrocellulose membranes, and immunoblotted with the indicated antibodies. IRDye®800-labeled goat anti-rabbit IgG and IRDye®680-labeled goat anti-mouse IgG (LI-COR®) secondary antibodies were purchased from LI-COR®, and membranes were detected on an Odyssey® detection system (LI-COR® Biosciences).
as §3, with “Odyssey” for “Odyssey®”

Ikaros = target: T5, Ikaros (Homo sapiens, UniProt Q13422+Q96SW2); assay: Immunoblot for Ikaros in Jurkat cells; type: cell-based
T5 construct: endogenous in cells; host or cells: Jurkat
Experimental: as §2, §3

GSPT1 = GSPT1 (Homo sapiens, UniProt P15170+Q96SW2); assay: Cellular degradation assay, eGFP-GSPT1 fusion with mCherry reporter in Flp-In 293 cells; type: cell-based; design: expressed in transfected cells; host or cells: Flp-In 293; settings: 5 h incubation, n=1
How it was run: as §1

Ikzf2 mRNA = assay: qPCR for Ikzf2 mRNA in Jurkat cells; type: cell-based; settings: 4 h, n=3
Experimental: FIG. 2A is a graph of 520/490 TR-FRET ratios. […] FIG. 2C is immunoblots from wildtype or Crbn−/− Jurkat cells treated with compound 54 for 4 h. FIG. 2D is immunoblots from Jurkat cells co-treated with compound 54 (1 μM) and bortezomib (bort.; 1 μM) or MLN4924 (1 μM) for 4 h. FIG. 2E is a bar graph showing quantitative polymerase chain reaction (qPCR) for Ikzf2 messenger ribonucleic acid (mRNA) from Jurkat cells treated for 4 h (n=3; N.S.=not significant).

Helios [2] = target: T6, Helios (Mus musculus, UniProt P81183); assay: Immunoblot for Helios in Hoxb8-immortalized myeloid progenitor cells (wildtype or Crbn^I391V/I391V); type: cell-based, murine; settings: Hoxb8 myeloid progenitor cells from wildtype or Crbn^I391V/I391V mice, 18 h
T6 construct: endogenous in cells; host or cells: Hoxb8-immortalized myeloid progenitor cells from mice
Experimental: IKZF1/3 are not susceptible to IMiD-mediated degradation in murine cells, and this can be rescued by mutating a single amino acid on the surface of murine CRBN (Ile 391) to the analogous human residue (Val). To determine whether Helios follows a similar pattern, Hoxb8-immortalized myeloid progenitor cells derived from wildtype or Crbn^I391V/I391V mice were treated with compound 54. […] Thus, Helios is degradable in murine cells only if they express ‘humanized’ CRBN.

[3] = compound concentration 6.6667E−05
[4] = compound concentration 6.6667E−06
[5] = compound concentration 6.6667E−07 (667 nM)
[6] = compound concentration 2.00E−05
[7] = compound concentration 2.00E−06
[8] = compound concentration 2.00E−07

T2 sequence (Q13422 83-213 isoform Q13422-7 limits assumed): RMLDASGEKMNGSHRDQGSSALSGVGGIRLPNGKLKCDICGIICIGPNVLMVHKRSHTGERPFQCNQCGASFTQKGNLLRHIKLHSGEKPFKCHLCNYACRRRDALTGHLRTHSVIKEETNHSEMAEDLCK
T2 sequence (Q96SW2 whole entry partner, the tested form may be a part): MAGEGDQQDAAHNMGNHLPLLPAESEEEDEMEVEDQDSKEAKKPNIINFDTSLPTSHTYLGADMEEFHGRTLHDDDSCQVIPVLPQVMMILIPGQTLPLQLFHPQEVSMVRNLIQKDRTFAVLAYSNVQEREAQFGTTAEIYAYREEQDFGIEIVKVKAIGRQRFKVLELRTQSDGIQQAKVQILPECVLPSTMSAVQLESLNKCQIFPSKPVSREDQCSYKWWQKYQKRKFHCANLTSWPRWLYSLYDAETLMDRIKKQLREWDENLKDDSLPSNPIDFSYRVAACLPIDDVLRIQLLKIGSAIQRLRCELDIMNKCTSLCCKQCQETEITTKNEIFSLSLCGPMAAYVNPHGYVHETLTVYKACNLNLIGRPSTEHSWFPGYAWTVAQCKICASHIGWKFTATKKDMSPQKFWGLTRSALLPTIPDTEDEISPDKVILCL
T2 sequence (Q16531 2-1140 partner limits assumed): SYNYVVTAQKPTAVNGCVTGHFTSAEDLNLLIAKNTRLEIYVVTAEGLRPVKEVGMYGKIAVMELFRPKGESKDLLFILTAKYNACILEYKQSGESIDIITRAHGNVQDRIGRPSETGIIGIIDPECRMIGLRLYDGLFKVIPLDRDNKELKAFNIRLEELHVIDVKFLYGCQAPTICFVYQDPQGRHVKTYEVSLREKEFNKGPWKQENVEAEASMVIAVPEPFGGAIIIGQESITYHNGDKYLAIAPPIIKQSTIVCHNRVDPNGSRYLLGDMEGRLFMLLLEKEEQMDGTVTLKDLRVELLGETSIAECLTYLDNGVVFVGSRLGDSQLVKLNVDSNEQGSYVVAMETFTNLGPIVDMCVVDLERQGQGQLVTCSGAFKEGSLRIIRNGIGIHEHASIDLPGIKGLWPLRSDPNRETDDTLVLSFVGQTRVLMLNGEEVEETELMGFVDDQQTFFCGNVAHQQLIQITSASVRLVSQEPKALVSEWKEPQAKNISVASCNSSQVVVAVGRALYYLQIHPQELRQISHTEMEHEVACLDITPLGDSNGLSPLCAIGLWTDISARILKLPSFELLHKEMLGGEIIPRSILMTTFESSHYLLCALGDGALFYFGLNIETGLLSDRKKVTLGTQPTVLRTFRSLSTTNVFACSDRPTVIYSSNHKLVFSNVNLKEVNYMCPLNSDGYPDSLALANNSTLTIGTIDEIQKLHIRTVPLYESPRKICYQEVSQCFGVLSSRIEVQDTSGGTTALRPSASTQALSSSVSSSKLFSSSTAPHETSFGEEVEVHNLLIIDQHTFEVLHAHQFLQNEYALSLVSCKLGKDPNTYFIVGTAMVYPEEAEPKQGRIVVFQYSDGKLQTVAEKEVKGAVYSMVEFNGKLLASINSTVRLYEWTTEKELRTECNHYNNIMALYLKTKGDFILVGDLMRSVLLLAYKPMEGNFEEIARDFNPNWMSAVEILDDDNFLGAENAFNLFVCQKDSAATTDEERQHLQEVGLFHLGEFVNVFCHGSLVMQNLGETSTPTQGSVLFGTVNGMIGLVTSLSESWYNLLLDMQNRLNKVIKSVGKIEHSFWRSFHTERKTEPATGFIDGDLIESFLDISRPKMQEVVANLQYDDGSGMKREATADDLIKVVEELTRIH
T3 sequence (Q9UJQ4 378-438 limits assumed): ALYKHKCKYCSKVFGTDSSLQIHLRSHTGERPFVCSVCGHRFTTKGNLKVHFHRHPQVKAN
T3 sequence (Q96SW2 whole entry, the tested form may be a part): as the sequence (Q96SW2 whole entry partner, the tested form may be a part) above
T3 sequence (Q16531 whole entry partner, the tested form may be a part): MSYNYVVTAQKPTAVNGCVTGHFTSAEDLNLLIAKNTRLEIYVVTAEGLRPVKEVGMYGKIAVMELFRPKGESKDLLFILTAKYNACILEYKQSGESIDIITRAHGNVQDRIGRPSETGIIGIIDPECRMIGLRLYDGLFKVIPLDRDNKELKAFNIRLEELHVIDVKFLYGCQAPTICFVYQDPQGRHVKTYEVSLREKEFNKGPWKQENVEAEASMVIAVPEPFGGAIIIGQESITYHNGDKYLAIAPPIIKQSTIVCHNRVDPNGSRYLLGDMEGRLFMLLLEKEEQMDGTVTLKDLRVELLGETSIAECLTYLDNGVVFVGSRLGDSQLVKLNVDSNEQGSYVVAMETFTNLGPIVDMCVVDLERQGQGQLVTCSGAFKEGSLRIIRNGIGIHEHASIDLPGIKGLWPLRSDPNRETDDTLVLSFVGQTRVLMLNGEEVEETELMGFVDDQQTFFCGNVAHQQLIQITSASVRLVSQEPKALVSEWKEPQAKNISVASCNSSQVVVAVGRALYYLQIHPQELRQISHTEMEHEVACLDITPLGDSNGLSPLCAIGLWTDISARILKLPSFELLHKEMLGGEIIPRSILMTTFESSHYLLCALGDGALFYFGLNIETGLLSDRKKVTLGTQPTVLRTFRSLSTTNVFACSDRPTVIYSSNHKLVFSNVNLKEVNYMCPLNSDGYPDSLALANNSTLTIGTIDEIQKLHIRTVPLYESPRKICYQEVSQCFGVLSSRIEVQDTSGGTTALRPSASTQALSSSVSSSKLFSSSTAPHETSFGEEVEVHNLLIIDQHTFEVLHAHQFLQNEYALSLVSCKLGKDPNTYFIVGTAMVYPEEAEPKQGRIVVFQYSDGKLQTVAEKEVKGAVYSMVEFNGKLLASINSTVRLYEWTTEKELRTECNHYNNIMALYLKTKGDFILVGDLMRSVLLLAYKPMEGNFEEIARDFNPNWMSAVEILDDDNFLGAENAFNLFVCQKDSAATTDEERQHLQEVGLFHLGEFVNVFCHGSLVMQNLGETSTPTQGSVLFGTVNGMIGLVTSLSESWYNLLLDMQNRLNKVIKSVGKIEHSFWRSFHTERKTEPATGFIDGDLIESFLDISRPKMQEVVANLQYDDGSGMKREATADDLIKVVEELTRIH
T1 sequence (Q96SW2 whole entry): as the sequence (Q96SW2 whole entry partner, the tested form may be a part) above
T1 sequence (Q9UKS7 whole entry): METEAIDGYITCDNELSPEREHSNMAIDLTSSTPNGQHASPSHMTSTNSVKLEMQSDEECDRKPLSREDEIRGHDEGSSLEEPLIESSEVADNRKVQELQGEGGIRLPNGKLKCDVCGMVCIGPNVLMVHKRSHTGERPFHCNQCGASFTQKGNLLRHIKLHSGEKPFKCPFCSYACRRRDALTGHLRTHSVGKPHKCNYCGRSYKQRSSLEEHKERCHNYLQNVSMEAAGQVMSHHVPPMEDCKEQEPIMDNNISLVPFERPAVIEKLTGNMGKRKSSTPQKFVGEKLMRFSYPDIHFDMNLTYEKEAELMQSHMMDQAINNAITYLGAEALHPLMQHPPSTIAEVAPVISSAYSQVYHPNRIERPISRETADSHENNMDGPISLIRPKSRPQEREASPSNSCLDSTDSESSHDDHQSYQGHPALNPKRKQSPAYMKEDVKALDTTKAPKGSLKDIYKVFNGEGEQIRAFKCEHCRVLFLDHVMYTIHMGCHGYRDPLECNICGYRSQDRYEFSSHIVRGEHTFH

## Cc1ccc(NC(=O)NCc2cccc(NC3=CC(=O)N(C4CCC(=O)NC4=O)C3=O)c2)cc1Cl (stereo not drawn) [Compound 44, 1-(3-chloro-4-methylphenyl)-3-(3-((1-(2,6-dioxopiperidin-3-yl)-2,5-dioxo-2,5-dihydro-1H-pyrrol-3-yl)amino)benzyl)urea]
CRBN and Helios (IKZF2)
  TR-FRET signal (520/490 ratio), CRBN-Helios dimerization, in words: increased activity over CC-885 at all tested concentrations
CRBN and Helios (IKZF2); [3]
  TR-FRET-IKZF2 (Normalized to CC-885): 1.223
CRBN and Helios (IKZF2); [4]
  TR-FRET-IKZF2 (Normalized to CC-885): 1.191
CRBN and Helios (IKZF2); [5]
  TR-FRET-IKZF2 (Normalized to CC-885): 1.119
IKZF2; [6]
  IKZF2 GFP/RFP Relative Abundance: 0.042
IKZF2; [7]
  IKZF2 GFP/RFP Relative Abundance: 0.079
IKZF2; [8]
  IKZF2 GFP/RFP Relative Abundance: 0.085
IKZF1; [6]
  IKZF1 GFP/RFP Relative Abundance: 0.059
IKZF1; [7]
  IKZF1 GFP/RFP Relative Abundance: 0.071
IKZF1; [8]
  IKZF1 GFP/RFP Relative Abundance: 0.072
SALL4 ZNF1-2; [6]
  SALL4 ZNF1-2 GFP/RFP Relative Abundance: 0.888
SALL4 ZNF1-2; [7]
  SALL4 ZNF1-2 GFP/RFP Relative Abundance: 0.742
SALL4 ZNF1-2; [8]
  SALL4 ZNF1-2 GFP/RFP Relative Abundance: 0.702
Helios [1]; Jurkat cells, 24 h treatment
  Helios loss (immunoblot): induced loss of both Ikaros and Helios; also recorded: required 24 h treatment
Ikaros; 24 h treatment
  Ikaros loss (immunoblot): induced loss of both Ikaros and Helios
GSPT1; [6]
  GSPT1 GFP/RFP Relative Abundance: 0.399
GSPT1; [7]
  GSPT1 GFP/RFP Relative Abundance: 0.504
GSPT1; [8]
  GSPT1 GFP/RFP Relative Abundance: 0.744

## Cc1ccc(NC(=O)NC(C)c2cccc(NC3=CC(=O)N(C4CCC(=O)NC4=O)C3=O)c2)cc1Cl (stereo not drawn) [Compound 54, 1-(3-chloro-4-methylphenyl)-3-(1-(3-((1-(2,6-dioxopiperidin-3-yl)-2,5-dioxo-2,5-dihydro-1H-pyrrol-3-yl)amino)phenyl)ethyl)urea]
CRBN and Helios (IKZF2)
  TR-FRET signal (520/490 ratio), CRBN-Helios dimerization, in words: scored even higher than compound 44
CRBN and Helios (IKZF2); [3]
  TR-FRET-IKZF2 (Normalized to CC-885): 1.729
CRBN and Helios (IKZF2); [4]
  TR-FRET-IKZF2 (Normalized to CC-885): 1.629
CRBN and Helios (IKZF2); [5]
  TR-FRET-IKZF2 (Normalized to CC-885): 1.382
IKZF2; [6]
  IKZF2 GFP/RFP Relative Abundance: 0.030
IKZF2; [7]
  IKZF2 GFP/RFP Relative Abundance: 0.024
IKZF2; [8]
  IKZF2 GFP/RFP Relative Abundance: 0.027
IKZF1; [6]
  IKZF1 GFP/RFP Relative Abundance: 0.119
IKZF1; [7]
  IKZF1 GFP/RFP Relative Abundance: 0.106
IKZF1; [8]
  IKZF1 GFP/RFP Relative Abundance: 0.102
Helios [1]; Jurkat cells, 1 μM compound with 1 μM bortezomib, MLN4924 or carfilzomib, 4 h
  Helios degradation on co-treatment with proteasome or NAE inhibitor: both prevented Helios degradation
Helios [1]; wildtype or Crbn−/− Jurkat cells, 4 h treatment
  Helios degradation (immunoblot): induced CRBN-dependent Helios degradation
Ikaros; 4 h treatment
  Ikaros degradation (immunoblot): lost some degradation activity against Ikaros in comparison to compound 44
Ikzf2 mRNA
  IKZF2 mRNA levels (qPCR): did not affect mRNA levels of IKZF2
Helios [2]
  Helios degradation in murine cells: Helios was only degraded in Crbn^I391V/I391V cells
GSPT1; [6]
  GSPT1 GFP/RFP Relative Abundance: 0.420
GSPT1; [7]
  GSPT1 GFP/RFP Relative Abundance: 0.638
GSPT1; [8]
  GSPT1 GFP/RFP Relative Abundance: 0.567

## COC(=O)CCNC1=CC(=O)N(C2CCC(=O)NC2=O)C1=O (stereo not drawn) [Compound 14, Methyl 3-((1-(2,6-dioxopiperidin-3-yl)-2,5-dioxo-2,5-dihydro-1H-pyrrol-3-yl)amino)propanoate]
CRBN and Helios (IKZF2); [3]
  TR-FRET-IKZF2 (Normalized to CC-885): 0.046
CRBN and Helios (IKZF2); [4]
  TR-FRET-IKZF2 (Normalized to CC-885): 0.040
CRBN and Helios (IKZF2); [5]
  TR-FRET-IKZF2 (Normalized to CC-885): 0.022
IKZF2; [6]
  IKZF2 GFP/RFP Relative Abundance: 1.022
IKZF2; [7]
  IKZF2 GFP/RFP Relative Abundance: 0.982
IKZF2; [8]
  IKZF2 GFP/RFP Relative Abundance: 1.040
IKZF1; [6]
  IKZF1 GFP/RFP Relative Abundance: 1.033
IKZF1; [7]
  IKZF1 GFP/RFP Relative Abundance: 1.031
IKZF1; [8]
  IKZF1 GFP/RFP Relative Abundance: 1.043
SALL4 ZNF1-2; [6]
  SALL4 ZNF1-2 GFP/RFP Relative Abundance: 0.955
SALL4 ZNF1-2; [7]
  SALL4 ZNF1-2 GFP/RFP Relative Abundance: 0.944
SALL4 ZNF1-2; [8]
  SALL4 ZNF1-2 GFP/RFP Relative Abundance: 0.983
GSPT1; [6]
  GSPT1 GFP/RFP Relative Abundance: 1.058
GSPT1; [7]
  GSPT1 GFP/RFP Relative Abundance: 1.018
GSPT1; [8]
  GSPT1 GFP/RFP Relative Abundance: 0.915

## Cc1ccc(NC(=O)Nc2ccc(NC3=CC(=O)N(C4CCC(=O)NC4=O)C3=O)cc2)cc1Cl (stereo not drawn) [Compound 42, 1-(3-chloro-4-methylphenyl)-3-(4-((1-(2,6-dioxopiperidin-3-yl)-2,5-dioxo-2,5-dihydro-1H-pyrrol-3-yl)amino)phenyl)urea]
CRBN and Helios (IKZF2); [3]
  TR-FRET-IKZF2 (Normalized to CC-885): 0.407
CRBN and Helios (IKZF2); [4]
  TR-FRET-IKZF2 (Normalized to CC-885): 0.318
CRBN and Helios (IKZF2); [5]
  TR-FRET-IKZF2 (Normalized to CC-885): 0.209
IKZF2; [6]
  IKZF2 GFP/RFP Relative Abundance: 1.056
IKZF2; [7]
  IKZF2 GFP/RFP Relative Abundance: 1.050
IKZF2; [8]
  IKZF2 GFP/RFP Relative Abundance: 0.999
IKZF1; [6]
  IKZF1 GFP/RFP Relative Abundance: 0.775
IKZF1; [7]
  IKZF1 GFP/RFP Relative Abundance: 0.536
IKZF1; [8]
  IKZF1 GFP/RFP Relative Abundance: 0.577
SALL4 ZNF1-2; [6]
  SALL4 ZNF1-2 GFP/RFP Relative Abundance: 1.122
SALL4 ZNF1-2; [7]
  SALL4 ZNF1-2 GFP/RFP Relative Abundance: 0.997
SALL4 ZNF1-2; [8]
  SALL4 ZNF1-2 GFP/RFP Relative Abundance: 1.018
GSPT1; [6]
  GSPT1 GFP/RFP Relative Abundance: 0.118
GSPT1; [7]
  GSPT1 GFP/RFP Relative Abundance: 0.182
GSPT1; [8]
  GSPT1 GFP/RFP Relative Abundance: 0.215

## O=C1CCC(N2C(=O)C=C(Nc3ccc(Cl)cc3)C2=O)C(=O)N1 (stereo not drawn) [Compound 25, 3-(3-((4-chlorophenyl)amino)-2,5-dioxo-2,5-dihydro-1H-pyrrol-1-yl)piperidine-2,6-dione]
CRBN and Helios (IKZF2); [3]
  TR-FRET-IKZF2 (Normalized to CC-885): 0.339
CRBN and Helios (IKZF2); [4]
  TR-FRET-IKZF2 (Normalized to CC-885): 0.282
CRBN and Helios (IKZF2); [5]
  TR-FRET-IKZF2 (Normalized to CC-885): 0.230
IKZF2; [6]
  IKZF2 GFP/RFP Relative Abundance: 0.966
IKZF2; [7]
  IKZF2 GFP/RFP Relative Abundance: 0.978
IKZF2; [8]
  IKZF2 GFP/RFP Relative Abundance: 0.955
IKZF1; [6]
  IKZF1 GFP/RFP Relative Abundance: 0.258
IKZF1; [7]
  IKZF1 GFP/RFP Relative Abundance: 0.298
IKZF1; [8]
  IKZF1 GFP/RFP Relative Abundance: 0.341
SALL4 ZNF1-2; [6]
  SALL4 ZNF1-2 GFP/RFP Relative Abundance: 0.831
SALL4 ZNF1-2; [7]
  SALL4 ZNF1-2 GFP/RFP Relative Abundance: 0.897
SALL4 ZNF1-2; [8]
  SALL4 ZNF1-2 GFP/RFP Relative Abundance: 0.887
GSPT1; [6]
  GSPT1 GFP/RFP Relative Abundance: 1.019
GSPT1; [7]
  GSPT1 GFP/RFP Relative Abundance: 1.233
GSPT1; [8]
  GSPT1 GFP/RFP Relative Abundance: 1.201
